Legend:
human orexin-2 receptor = human orexin-2 receptor (Homo sapiens (Human), UniProt O43614); experiment: FLIPR Ca2+ flux assay, orexin-2 receptor; assay type: cell-based; conditions: CHO cells expressing human orexin-2 receptor; agonist 70 pM Ala-6,12 orexin-A; read-out: hOX2R FLIPR IC50
Experimental: The utility of the compounds in accordance with the present invention as orexin receptor OX1R and/or OX2R antagonists may be readily determined without undue experimentation by methodology well known in the art, including the “FLIPR Ca^2+ Flux Assay” (Okumura et al., Biochem. Biophys. Res. Comm. 280:976-981, 2001). In a typical experiment the OX1 and OX2 receptor antagonistic activity of the compounds of the present invention was determined in accordance with the following experimental method. For intracellular calcium measurements, Chinese hamster ovary (CHO) cells expressing the rat orexin-1 receptor or the human orexin-2 receptor, are grown in Iscove's modified DMEM containing 2 mM L-glutamine, […], 1% hypoxanthine-thymidine supplement, 100 U/ml penicillin, 100 μg/ml streptomycin and 10% heat-inactivated fetal calf serum (FCS). The cells are seeded at 20,000 cells/well into Becton-Dickinson black 384-well clear bottom sterile plates coated with poly-D-lysine. All reagents were from GIBCO-Invitrogen Corp. The seeded plates are incubated overnight at 37° C. and 5% CO2. Ala-6,12 human orexin-A as the agonist is prepared as a 1 mM stock solution in 1% bovine serum albumin (BSA) and diluted in assay buffer (HBSS containing 20 mM HEPES, 0.1% BSA and 2.5 mM probenecid, pH7.4) for use in the assay at a final concentration of 70 pM. Test compounds are prepared as 10 mM stock solution in DMSO, then diluted in 384-well plates, first in DMSO, then assay buffer. On the day of the assay, cells are washed 3 times with 100 μl assay buffer and then incubated for 60 min (37° C., 5% CO2) in 60 μl assay buffer containing 1 μM Fluo-4AM ester, 0.02% pluronic acid, and 1% BSA. The dye loading solution is then aspirated and cells are washed 3 times with 100 μl assay buffer. 30 μl of that same buffer is left in each well. Within the Fluorescent Imaging Plate Reader (FLIPR, Molecular Devices), test compounds are added to the plate in a volume of 25 μl, incubated for 5 min and finally 25 μl of agonist is added. Fluorescence is measured for each well at 1 second intervals for 5 minutes and the height of each fluorescence peak is compared to the height of the fluorescence peak induced by 70 pM Ala-6,12 orexin-A with buffer in place of antagonist. For each antagonist, IC50 value (the concentration of compound needed to inhibit 50% of the agonist response) is determined. Alternatively, compound potency can be assessed by a radioligand binding assay (described in Bergman et. al. Bioorg. Med. Chem. Lett. 2008, 18, 1425-1430) in which the inhibition constant (Ki) is determined in membranes prepared from CHO cells expressing either the OX1 or OX2 receptor. The intrinsic orexin receptor antagonist activity of a compound which may be used in the present invention may be determined by these assays.

hOX1R = hOX1R (Homo sapiens, UniProt O43613); experiment: FLIPR Ca2+ flux assay, orexin-1 receptor; assay type: cell-based; conditions: CHO cells expressing orexin-1 receptor; agonist 70 pM Ala-6,12 orexin-A

Sequence of human orexin-2 receptor (O43614 whole entry): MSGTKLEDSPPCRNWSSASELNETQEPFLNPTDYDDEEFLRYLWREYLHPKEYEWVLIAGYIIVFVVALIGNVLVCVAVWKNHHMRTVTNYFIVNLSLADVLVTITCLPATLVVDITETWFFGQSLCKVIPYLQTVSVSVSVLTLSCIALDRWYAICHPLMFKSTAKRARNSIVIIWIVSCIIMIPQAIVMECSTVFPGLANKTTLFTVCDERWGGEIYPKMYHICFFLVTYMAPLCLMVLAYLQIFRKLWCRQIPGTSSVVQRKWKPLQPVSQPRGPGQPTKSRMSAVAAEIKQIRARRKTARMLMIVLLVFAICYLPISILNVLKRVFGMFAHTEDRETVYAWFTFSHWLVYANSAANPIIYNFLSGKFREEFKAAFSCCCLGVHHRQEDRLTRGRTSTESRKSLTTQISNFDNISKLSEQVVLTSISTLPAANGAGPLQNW

| Compound | IC50 (human orexin-2 receptor) | IC50 (hOX1R) |
| --- | --- | --- |
| C[C@@H]1CC[C@@H](Oc2cc(OC(F)F)ccn2)CN1C(=O)c1cscc1-n1nccn1 [Example 55, 4-(difluoromethoxy)-2-{[(3R,6R)-6-methyl-1-{[4-(2H-1,2,3-triazol-2-yl)thiophen-3-yl]carbonyl}piperidin-3-yl]oxy}pyridine] | 13 nM | 1760 nM |
| C[C@@H]1CC[C@@H](Oc2cc(OC(F)F)ccn2)CN1C(=O)c1ccccc1C1(C#N)CC1 [Example 56, 1-(2-{[(2R,5R)-5-{[4-(difluoromethoxy)pyridin-2-yl]oxy}-2-methylpiperidin-1-yl]carbonyl}phenyl) cyclopropane-carbonitrile] | 11 nM | 1140 nM |
| C[C@@H]1CC[C@@H](Oc2cc(OC(F)F)ccn2)CN1C(=O)c1ccccc1-n1ncnn1 [Example 57, 4-(difluoromethoxy)-2-{[(3R,6R)-6-methyl-1-{[2-(2H-tetrazol-2-yl)phenyl]carbonyl}piperidin-3-yl]oxy}pyridine] | 11 nM | 1690 nM |
| COc1ccnc(O[C@@H]2CC[C@@H](C)N(C(=O)c3ccsc3-c3ncccn3)C2)c1 [Example 58, ((2R,5R)-5-((4-Methoxypyridin-2-yl)oxy)-2-methylpiperidin-1-yl)(2-(pyrimidin-2-yl)thiophen-3-yl)methanone] | 21 nM | 1110 nM |
| C[C@@H]1CC[C@@H](Oc2cc(OCC(F)F)ccn2)CN1C(=O)c1ccsc1-n1nccn1 [Example 60, (2-(2H-1,2,3-Triazol-2-yl)thiophen-3-yl)((2R,5R)-5-((4-(2,2-difluoroethoxy)pyridin-2-yl)oxy)-2-methylpiperidin-1-yl)methanone] | 22 nM | 2020 nM |
| CC(C)Oc1ccnc(O[C@@H]2CC[C@@H](C)N(C(=O)c3ccsc3-n3nccn3)C2)c1 [Example 61, 4-(1-methylethoxy)-2-{[(3R,6R)-6-methyl-1-{[2-(2H-1,2,3-triazol-2-yl)thiophen-3-yl]carbonyl}piperidin-3-yl]oxy}pyridine] | 25 nM | 1480 nM |
| CCOc1ccnc(O[C@@H]2CC[C@@H](C)N(C(=O)c3ccsc3-n3nccn3)C2)c1 [Example 62, 4-ethoxy-2-{[(3R,6R)-6-methyl-1-{[2-(2H-1,2,3-triazol-2-yl)thiophen-3-yl]carbonyl}piperidin-3-yl]oxy}pyridine] | 22 nM | 1160 nM |
| C[C@@H]1CC[C@@H](Oc2cc(OCC(F)(F)F)ccn2)CN1C(=O)c1ccsc1-n1nccn1 [Example 63, 2-{[(3R,6R)-6-methyl-1-{[2-(2H-1,2,3-triazol-2-yl)thiophen-3-yl]carbonyl}piperidin-3-yl]oxy}-4-(2,2,2-trifluoroethoxy) pyridine] | 55 nM | 8380 nM |
| C[C@@H]1CC[C@@H](Oc2cc(OCC(F)F)ccn2)CN1C(=O)c1ccsc1-c1ncccn1 [Example 64, ((2R,5R)-5-((4-(2,2-Difluoroethoxy)pyridin-2-yl)oxy)-2-methylpiperidin-1-yl)(2-(pyrimidin-2-yl)thiophen-3-yl)methanone] | 36 nM | 5210 nM |
| CCOc1ccnc(O[C@@H]2CC[C@@H](C)N(C(=O)c3ccsc3-c3ncccn3)C2)c1 [Example 65, ((2R,5R)-5-(4-Ethoxypyridin-2-yloxy)-2-methylpiperidin-1-yl)(2-(pyrimidin-2-yl)thiophen-3-yl)methanone] | 26 nM | 899 nM |
| C[C@@H]1CC[C@@H](Oc2cc(OCC(F)(F)F)ccn2)CN1C(=O)c1ccsc1-c1ncccn1 [Example 66, 2-(3-{[(2R,5R)-2-methyl-5-{[4-(2,2,2-trifluoroethoxy)pyridin-2-yl]oxy}piperidin-1-yl]carbonyl}thiophen 2-yl)pyrimidine] | 26 nM | 2080 nM |
